Results from PubChem BioAssay (NCI).
“And” between values parts separate entries of the source, which are not always exact repeats. Equal entries are not always repeated.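 The compound was tested at five concentrations on cells cultured in 96-well plates, with a 48-hour exposure period. At the GI50, growth is halved. The concentration for full growth arrest is given as TGI.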

Columns and labels:
Assay in all cases: NCI tumour cell line growth inhibition, 48 h
DLD-1 colon = tested on: DLD-1 colon
DMS 114 small cell lung = tested on: DMS 114 small cell lung
HOP-18 NSCLC = tested on: HOP-18 NSCLC
M19-MEL melanoma = tested on: M19-MEL melanoma
RXF-631 renal = tested on: RXF-631 renal
XF 498 CNS = tested on: XF 498 CNS
HS 578T breast = tested on: HS 578T breast
MDA-N = tested on: MDA-N

SMILES | TGI (DLD-1 colon) [µM] | TGI (DMS 114 small cell lung) [µM] | TGI (M19-MEL melanoma) [µM] | GI50 (HS 578T breast) | TGI (HS 578T breast) [µM] | also measured
CSc1nc(NC2OC(COC(C)=O)C(OC(C)=O)C(OC(C)=O)C2OC(C)=O)c(-c2csc(N)n2)c(=O)n1C (stereo unspecified) | > 100 | > 100 | > 100 | – | – | TGI (HOP-18 NSCLC): > 100 µM
CCOC(=N)CC(=O)Nc1cccc(Cl)c1 | > 100 | – | > 100 | – | – | TGI (RXF-631 renal): > 100 µM; TGI (XF 498 CNS): > 100 µM
Cc1ccc(C2=Nc3c(N)ncnc3NC(c3ccc4c(c3)OCO4)C2)cc1 (stereo unspecified) | – | – | – | 7.28 µM | 40 | –
CCC(=O)Nc1ccccc1C#C/C=C\C#Cc1ccccc1C(F)(F)F | – | – | – | 1.35 µM | 9.19 | –
O=C1C(=O)c2ccccc2C(O)=C1CCCc1ccc(C2CCCCCC2)cc1 | – | – | – | 4.84 µM | 57.8 | –
COc1ccc2c(c1)[n+]([O-])c(-c1ccc(C)cc1)c(N)[n+]2[O-] | > 100 | 61.4 | > 100 | – | – | TGI (HOP-18 NSCLC): > 100 µM
COc1ccc2c(c1)CC1c3c(ccc(OC)c3O)CC2N1C (stereo unspecified) | > 100 | 38.8 | 56.9 | – | – | TGI (HOP-18 NSCLC): > 100 µM; TGI (RXF-631 renal): 47.1 µM; TGI (XF 498 CNS): 62.3 µM
Cc1ccc(C(SCC(N)C(=O)O)(c2ccccc2)c2ccccc2)cc1 (stereo unspecified) | – | – | – | 0.0371 µM | 0.913 | –
Oc1cccc(/C=N/Nc2nnc(N/N=C/c3cccc(O)c3)c3ccccc23)c1 | – | – | – | – | 52.9 | –
CC(=O)[CH-]C(=O)c1ccccc1.CC(=O)[CH-]C(=O)c1ccccc1.Cl.[O-]c1ccccn1.[O-]c1ccccn1.[Ti+4] | – | – | > 100 | – | – | GI50 (M19-MEL melanoma): > 100 µM
CNS(=O)(=O)NN(C)S(=O)(=O)c1ccc2ccccc2c1 | > 100 | > 100 | > 100 | – | – | TGI (RXF-631 renal): > 100 µM
CC1C[C@]2(C[C@@H](C)C(=O)O2)O[C@@H]2CC3(C)[C@@H]4CCC5C(C)(C)OC(=O)C[C@H]6OO[C@]4(CC[C@]3(C)C12)CC56O (stereo partly specified) | > 100 | > 100 | – | – | – | TGI (HOP-18 NSCLC): > 100 µM; TGI (XF 498 CNS): > 100 µM
O=[N+]([O-])c1ccc(/C=C/c2csnn2)cc1 | > 100 | > 100 | > 100 | – | – | TGI (HOP-18 NSCLC): > 100 µM
O=c1c(Br)cc2c(-c3ccccc3)c3cc(Br)c(O)c(Br)c3oc-2c1Br | – | – | – | – | > 100 | TGI (MDA-N): > 100 µM
COc1ccc(/C=C2\CN(Cc3cn(CCNc4ccnc5cc(Cl)ccc45)nn3)C/C(=C\c3ccc(OC)c(OC)c3)C2=O)cc1OC | – | – | – | 6.49 µM | > 100 | –
CC1(C)C=N[N+]2(C)C3C=CC(CC3)C12 (stereo unspecified) | > 100 | > 100 | > 100 | – | – | TGI (HOP-18 NSCLC): > 100 µM; TGI (RXF-631 renal): > 100 µM
Cc1ccc(NC(=S)SCCC(=O)O)cc1 | – | > 100 | – | – | – | TGI (RXF-631 renal): > 100 µM
COc1cc2c(cc1OC)NC(=O)NC(Cc1ccc3c(c1)OCO3)CC2 (stereo unspecified) | > 100 | > 100 | > 100 | – | – | TGI (XF 498 CNS): > 100 µM
COc1c(-c2ccc(O)c(O)c2)oc2c(O)c(O)cc(O)c2c1=O | – | – | – | – | > 100 | TGI (MDA-N): > 100 µM

SMILES | TGI (DLD-1 colon) [µM] | TGI (DMS 114 small cell lung) [µM] | TGI (M19-MEL melanoma) [µM] | GI50 (HS 578T breast) | TGI (HS 578T breast) [µM] | also measured
CCCCCCCCCCCCCCCC(=O)OCC1OC(OC)C2NP(=O)(N(CCCl)CCCl)OC1C2O (stereo unspecified) | 14.5 | 9.31 | > 75.3 | – | – | TGI (HOP-18 NSCLC): 33.6 µM; TGI (RXF-631 renal): 25.7 µM; TGI (XF 498 CNS): 7.83 µM
Cc1cc(C(=O)NC(CCC(=O)O)C(=O)O)sc1CCC1CNc2nc(N)[nH]c(=O)c2C1 (stereo unspecified) | – | – | – | 2.13 µM and 8.89 µM | > 100 | –
CN(C)CC(C(=O)Cc1ccccc1)c1ccccc1 (stereo unspecified) | – | – | – | 3.16 µM | 9.83 | –
C=CC1(NS(=O)(=O)c2ccc(C)cc2)CCC(C(C)(C)C)CC1 (stereo unspecified) | > 100 | > 100 | > 100 | – | – | TGI (HOP-18 NSCLC): > 100 µM
Cc1cccc(N2C(=O)C(=O)C(c3nc4ccccc4s3)/C(=N/NC(=S)NN)C2=O)c1C (stereo unspecified) | – | > 100 | > 100 | – | – | TGI (RXF-631 renal): > 100 µM; TGI (XF 498 CNS): > 100 µM
CC1=C(Cl)C=CP(=O)(OC(C)C)C1 (stereo unspecified) | > 100 | > 100 | > 100 | – | – | TGI (HOP-18 NSCLC): > 100 µM; TGI (RXF-631 renal): > 100 µM
CN1CCN(Cc2ccc(NC(=O)c3cncc(C#Cc4cncc5nccnc45)c3)cc2C(F)(F)F)CC1 | – | – | – | 1.13 µM | 7.89 | –
CCOC(=O)[C@H]1Nc2ccc([N+](=O)[O-])cc2C2c3ccccc3CC21 (stereo partly specified) | > 100 | 54 | 70.7 | – | – | TGI (XF 498 CNS): 82.7 µM
C[C@]12CC[C@H]3[C@@H](C[C@@H]4SC(Nc5ccccc5)=N[C@@]45CC(O)CC[C@]35C)[C@@H]1CCC2O (stereo partly specified) | – | – | – | 2.16 µM | 17.2 | –
COc1cc(C2C3=C(COC3=O)Nc3c2ccc2c3CCCC2)cc2c1OCO2 (stereo unspecified) | – | – | – | 0.0367 µM | 45.5 | –
CCCCNC(=O)Oc1ccc(/C(=C(/C)Cc2ccc(OC)cc2)c2ccc(OCCN3CCCC3)cc2)cc1 | – | – | – | 2.11 µM | 4.81 | –
O=[n+]1c2ccccc2n([O-])c2cc(Cl)ccc21 | – | – | – | 2.95 µM | 21.7 | –
CC(/C=C/c1ccccc1)=N\NC(N)=S | – | – | – | – | – | TGI (MDA-N): > 100 µM
COc1cc2ncnc(Nc3ccc4c(cnn4Cc4ccccc4)c3)c2cc1OC | – | – | – | > 21 µM | > 25 | –
NCCOc1ccccc1/C=C1\c2ccccc2-c2ccc([N+](=O)[O-])cc21 | – | – | – | 1.72 µM | 3.79 | –
Clc1ccc2nc(-c3ccccc3)nc(Cl)c2c1 | > 100 | > 100 | > 100 | – | – | TGI (RXF-631 renal): > 100 µM
CCCCN(CCCC)CCC(O)c1cc2c(Cl)cc(Cl)cc2c2cc(C(F)(F)F)ccc12 (stereo unspecified) | – | – | – | – | – | TGI (MDA-N): 26 µM
C/C=C/[C@H]1O[C@@H]2C(=C[C@H]1O)C(=O)O[C@H]2C | – | – | – | 23.3 µM | 49.8 | –
CCCCN[C@H]1C2C3CC4C5CC(C42)C1(C)C53 (stereo partly specified) | > 100 | > 100 | > 100 | – | – | TGI (HOP-18 NSCLC): > 100 µM
